Measurements taken from PubChem BioAssay (NCI).
Values joined by “and” are separate entries in the source; they are usually repeats but may differ in a detail not shown here. Identical values can stand only once.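 Cells were grown in 96-well plates and exposed to each compound for 48 hours at five concentrations; endpoints were interpolated linearly between bracketing concentrations, or set to the highest concentration if not reached. The concentration for 50% growth inhibition is given as GI50. TGI denotes the concentration required for complete inhibition of growth.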

How the values were obtained:
Assay in all cases: NCI-60 cell line screen, 48 h
CAKI-1 renal = system: CAKI-1 renal
HL-60(TB) leukemia = system: HL-60(TB) leukemia
MALME-3M melanoma = system: MALME-3M melanoma
MDA-MB-435 = system: MDA-MB-435
NCI-H460 lung = system: NCI-H460 lung
SF-268 CNS = system: SF-268 CNS
SW-620 colon = system: SW-620 colon
UO-31 renal = system: UO-31 renal
SR leukemia = system: SR leukemia
MCF7 breast = system: MCF7 breast

SMILES	TGI (CAKI-1 renal)	TGI (HL-60(TB) leukemia) [µM]	TGI (MALME-3M melanoma) [µM]	TGI (MDA-MB-435)	TGI (NCI-H460 lung) [µM]	TGI (SF-268 CNS) [µM]	TGI (SW-620 colon) [µM]	TGI (UO-31 renal) [µM]	TGI (SR leukemia)	TGI (MCF7 breast) [µM]	GI50 (CAKI-1 renal)	GI50 (MDA-MB-435)	GI50 (SR leukemia)	GI50 (SW-620 colon)	GI50 (HL-60(TB) leukemia) [µM]	GI50 (MALME-3M melanoma) [µM]	GI50 (MCF7 breast) [µM]	GI50 (NCI-H460 lung) [µM]	GI50 (SF-268 CNS) [µM]	GI50 (UO-31 renal) [µM]
c1ccc(C2CC(=NC3CCCCC3)Nc3ccccc3N2)cc1 (stereo not drawn)	> 100 µM	> 100	50.1	> 100 µM	> 100	> 100	> 100	> 100	–	–	–	–	–	–	–	–	–	–	–	–
O=C(O)/C=C\C(=O)Nc1ccc(S(=O)(=O)c2ccc(NC(=O)/C=C\C(=O)O)cc2)cc1	> 100 µM	> 100	> 100	–	–	> 100	> 100	> 100	> 100 µM	–	–	–	–	–	–	–	–	–	–	–
C=CC(=O)N1C/C(=C\c2ccc(Cl)cc2)C(=O)/C(=C/c2ccc(Cl)cc2)C1	1.32 µM	–	3.84	0.785 µM	1.18	0.617	0.887	1.17	> 100 µM	0.845	–	–	–	–	–	–	–	–	–	–
COP(=O)(OC)C(Nc1ccc(Cc2ccc(NC(c3ccco3)P(=O)(OC)OC)cc2)cc1)c1ccco1 (stereo not drawn)	86.3 µM	> 100	> 100	> 100 µM	> 100	> 100	> 100	> 100	–	> 100	–	–	–	–	–	–	–	–	–	–
O=C(CC(C(=O)c1ccco1)c1ccco1)c1ccco1 (stereo not drawn)	> 100 µM	> 100	–	> 100 µM	> 100	> 100	> 100	92.5	> 100 µM	> 100	–	–	–	–	–	–	–	–	–	–
Cc1cc(O)c(-c2cc(O)c(C)cc2O)cc1O	14.6 µM	3.88	25.5	9.32 µM	39.8	37.8	6	5.4	–	47.6	–	–	–	–	–	–	–	–	–	–
C=CCN1C(=O)/C(=C/c2ccc(C)cc2)N=C1SC1OC(COC(C)=O)C(OC(C)=O)C(OC(C)=O)C1OC(C)=O (stereo not drawn)	> 100 µM and 63.4 µM	> 100	> 100	> 100 µM and 21.4 µM	> 100	–	> 100	–	> 76.5 µM and 44.3 µM	> 100	4.88 µM and 11.2 µM	> 70.6 µM and 7.32 µM	26.5 µM and 10.8 µM	> 100 µM and 39.1 µM	–	–	–	–	–	–
O=C1c2cccc(O)c2C(=O)c2c(OC3OC(CO)C(O)C(O)C3O)cccc21 (stereo not drawn)	> 100 µM	–	20.9	39.7 µM	59	67.6	> 100	> 100	> 100 µM	> 100	–	–	–	–	–	–	–	–	–	–
COc1ccc(-n2nc(C)c3c(Nc4ccc(NC(=O)Nc5ccc(Cl)c(C(F)(F)F)c5)cc4)ncnc32)cc1	3.51 µM	4.95	3.35	4.17 µM	5.07	7.99	4.35	3.69	–	6.03	1.51 µM	1.92 µM	–	1.9 µM	2.1	1.54	2.12	2.17	2.61	1.7
O=C1OC(c2ccccc2)N(C(=O)c2ccccc2)C1Cc1ccc(OCc2ccccc2)cc1 (stereo not drawn)	–	> 100	–	> 100 µM	> 100	> 100	> 100	> 100	> 100 µM	62.3	–	–	–	–	–	–	–	–	–	–
C[C@]12CC[C@@H]3c4ccc(O)cc4CC[C@H]3[C@@H]1C/C(=C\c1ccc(C#N)cc1)C2=O	> 100 µM	–	> 100	76.8 µM	> 100	> 100	> 100	> 100	> 100 µM	> 100	–	–	–	–	–	–	–	–	–	–
Nc1ccc(-c2nn3c(COc4ccc(Cl)cc4)nnc3s2)cc1	> 100 µM	> 100	> 100	> 100 µM	> 100	> 100	> 100	> 100	–	> 100	–	–	–	–	–	–	41	–	46.8	–
CON(C)C(=O)C1CCCO1 (stereo not drawn)	> 100 µM	> 100	–	> 100 µM	> 100	> 100	> 100	> 100	> 100 µM	> 100	–	–	–	–	–	–	–	–	–	–
CN1CCN(C2=C(Cl)C3(OCCS3)C(F)(F)C2(F)F)CC1 (stereo not drawn)	> 100 µM	> 100	> 100	> 100 µM	–	> 100	> 100	> 100	> 100 µM	> 100	–	–	–	–	–	–	–	–	–	–
O=C1C=CC(=O)C(CNc2ccc(C(=O)OCc3ccccc3)cc2)=C1	2.94 µM	–	7.22	18.7 µM	38.9	21.8	19.6	7.49	–	18.5	–	–	–	–	–	–	–	–	–	–
COc1cc([N+](=O)[O-])c(OC)c2c(Nc3ccc(S(=O)(=O)O)c4cc(S(=O)(=O)O)cc(S(=O)(=O)O)c34)cc(C)nc12	> 100 µM	> 100	> 100	> 100 µM	–	> 100	> 100	> 100	–	> 100	–	–	–	–	–	–	–	–	–	–
O=[N+]([O-])c1cccc2c(N=Nc3ccc4ccccc4c3O)c(O)cc(S(=O)(=O)O)c12	> 100 µM	91.5	80.6	> 100 µM	–	> 100	> 100	56.1	> 100 µM	–	–	–	–	–	–	–	–	–	–	–
COc1cc2[nH]c(-c3ccccc3)cc(=O)c2c(OC)c1OC	–	> 100	> 100	> 100 µM	> 100	> 100	> 100	> 100	> 100 µM	> 100	–	–	–	–	–	–	–	–	–	–
CCN1C(=O)C(=C/C=C/c2ccc(N(CC)CC)cc2)C(=O)N(CC)C1=S	> 100 µM	> 100	–	> 100 µM	> 100	> 100	> 100	> 100	–	> 100	–	–	–	–	–	–	–	–	–	–
CC1(C)OC2COC3([C@@H]4OC(C)(C)O[C@@H]4CO)OC(C)(C)OC3C2O1 (stereo partly drawn)	> 100 µM	–	–	> 100 µM	> 100	–	> 100	> 100	> 100 µM	> 100	–	–	–	–	–	–	–	–	–	–
CC#CC(O)(C(=O)OC1CC(C)N(C)C(C)(C)C1)C1CCCC1 (stereo not drawn)	> 100 µM	> 100	> 100	> 100 µM	–	> 100	> 100	> 100	> 100 µM	> 100	–	–	–	–	–	–	–	–	–	–
